Source: patent US20060264494A1, “Heterocyclic amide derivatives which process glycogen phorylase inhibitory activity” (AstraZeneca AB, priority 2003, published 2006)
≈ marks a conversion by molar mass, not a printed value. Read-outs that look alike come from different tables or passages of the source. Each block holds one compound with its values, some of them ahead of it.

Key:
[1] = thermodynamic solubility; assay type: physicochemical; conditions: 0.1 M phosphate buffer, pH 7.4, aqueous buffer, thermodynamic from solid, 0.1 M phosphate at pH7.4 for 24 hours
[2] = molecular target: T1, Human recombinant liver glycogen phosphorylase a (hrl GPa) (Homo sapiens, UniProt P06737); test: glycogen phosphorylase inhibition, multienzyme coupled assay; assay type: biochemical
T1 sequence (P06737 1-847): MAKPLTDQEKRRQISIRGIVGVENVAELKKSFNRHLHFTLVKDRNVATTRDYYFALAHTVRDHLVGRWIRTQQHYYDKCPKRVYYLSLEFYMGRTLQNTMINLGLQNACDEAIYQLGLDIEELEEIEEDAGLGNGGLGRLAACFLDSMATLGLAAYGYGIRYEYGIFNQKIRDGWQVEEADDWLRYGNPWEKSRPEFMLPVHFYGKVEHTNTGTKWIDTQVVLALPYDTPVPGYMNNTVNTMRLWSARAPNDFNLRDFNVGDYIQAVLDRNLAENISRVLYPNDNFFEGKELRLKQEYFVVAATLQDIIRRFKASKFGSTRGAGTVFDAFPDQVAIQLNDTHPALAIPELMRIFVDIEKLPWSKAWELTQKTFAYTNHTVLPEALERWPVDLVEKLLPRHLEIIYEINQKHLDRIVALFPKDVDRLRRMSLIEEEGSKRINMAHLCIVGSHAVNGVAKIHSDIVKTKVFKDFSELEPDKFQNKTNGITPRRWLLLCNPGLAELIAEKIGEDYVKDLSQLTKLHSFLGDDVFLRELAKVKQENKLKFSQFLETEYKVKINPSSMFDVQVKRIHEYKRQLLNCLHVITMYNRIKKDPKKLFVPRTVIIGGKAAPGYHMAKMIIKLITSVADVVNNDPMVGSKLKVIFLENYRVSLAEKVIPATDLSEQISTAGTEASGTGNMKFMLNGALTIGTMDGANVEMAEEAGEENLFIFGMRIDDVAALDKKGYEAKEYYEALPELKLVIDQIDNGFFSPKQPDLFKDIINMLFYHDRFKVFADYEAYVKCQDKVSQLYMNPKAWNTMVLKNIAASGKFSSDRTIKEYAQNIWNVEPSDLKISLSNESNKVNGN
Protocol: The activity of the compounds is determined by measuring the inhibitory effect of the compounds on glycogen degradation, the production of glucose-1-phosphate from glycogen is monitored by the multienzyme coupled assay, as described in EP 0 846 464 A2, general method of Pesce et al (Pesce, M A, Bodourian, S H, Harris, R C, and Nicholson, J F (1977) Clinical Chemistry 23, […]). The reactions were in 384 well microplate format in a volume of 50 μl. The change in fluorescence due to the conversion of the co-factor NAD to NADH is measured at 340 nm excitation, 465 nm emission in a Tecan Ultra Multifunctional Microplate Reader. The reaction is in 50 mM HEPES, 3.5 mM KH2PO4, 2.5 mM MgCl2, 2.5 mM ethylene glycol-bis(b-aminoethyl ether) N,N,N′,N′-tetraacetic acid, 100 mM KCl, 8 mM D-(+)-glucose pH7.2, containing 0.5 mM dithiothreitol, the assay buffer solution. Human recombinant liver glycogen phosphorylase a (hrl GPa) 20 nM is pre-incubated in assay buffer solution with 6.25 mM NAD, 1.25 mg type III glycogen at 1.25 mg ml^−1 the reagent buffer, for 30 minutes. The coupling enzymes, phosphoglucomutase and glucose-6-phosphate dehydrogenase (Sigma) are prepared in reagent buffer, final concentration 0.25 Units per well. 20 μl of the hrl GPa solution is added to 10 μl compound solution and the reaction started with the addition of 20 μl coupling enzyme solution. Compounds to be tested are prepared in 10 μl 5% DMSO in assay buffer solution, with final concentration of 1% DMSO in the assay. The non-inhibited activity of GPa is measured in the presence of 10 μl 5% DMSO in assay buffer solution and maximum inhibition measured in the presence of 5 mgs ml^−1 N-ethylmaleimide. After 6 hours at 30° C. Relative Fluoresence Units (RFUs) are measured at 340 nm excitation, 465 nm emission.
The assay is performed at a test concentration of inhibitor of 10 μM or 100 μM.

[3] = conscious dogs, following a glucagon challenge; cited from earlier work
[4] = tested on: hepatocytes; conditions: cited from earlier work
[5] = db/db and ob/ob mice; dose related; cited from earlier work
[6] = hrl GPa 20 nM, 6 hours at 30° C., read-out: Activity (μM) IC50

solubility at 24 h [1]: 1.4 µM (≈ 0.591 µg/mL) | IC50 [2, 6]: ~0.4 µM
Compound: CC(=O)N(C)[C@@H]1c2ccccc2C[C@H]1NC(=O)c1cc2sc(Cl)c(Cl)c2[nH]1 [Reference Eg 1]

solubility at 24 h [1]: 50 µM | IC50 [2, 6]: 0.11 µM
Compound: CN(C(=O)[C@@H](N)CO)[C@@H]1c2ccccc2C[C@H]1NC(=O)c1cc2sc(Cl)c(Cl)c2[nH]1.Cl [Example 27, 2,3-Dichloro-N-{(1R,2R)-1-[methyl(L-seryl)amino]-2,3-dihydro-1H-inden-2-y}-4H-thieno[3,2-b]pyrrole-5-carboxamide hydrochloride]

Compound: CCN1C(C)=C(C(=O)OC(C)C)C(c2ccccc2Cl)C2=C1COC2=O (stereo not drawn) [Bay R 3401]
arterial plasma glucose [3]: reduced significantly | hepatic glucose output [3]: reduced significantly

Compound: 2-Chloro-N-{(1R,2R)-1-[[(2S)-2,3-dihydroxypropanoyl](methyl)amino]-2,3-dihydro-1H-inden-2-yl}-6H-thieno[2,3-b]pyrrole-5-carboxamide [Example 8]
IC50 [2, 6]: 0.07 µM | IC50 ([2]; text b160, unit printed as nm, read-out: IC50): 0.176 µM

Compound: CN(C)C(=O)[C@H](O)[C@H](Cc1ccccc1)NC(=O)c1cc2cc(Cl)ccc2[nH]1 [CP91149]
glucagon stimulated glycogenolysis [4]: reduce | glucose output in hepatocytes [4]: reduce | plasma glucose concentration [5]: reduced

Compound: O=C(N[C@@H](Cc1ccc(F)cc1)C(=O)N1CCC(O)CC1)c1cc2cc(Cl)ccc2[nH]1 [CP320626]
glucagon stimulated glycogenolysis [4]: reduce | glucose output in hepatocytes [4]: reduce | plasma glucose concentration [5]: reduced

IC50 ([2]; text b160, read-out: IC50): 0.265 µM
Compound: COCC(=O)N(C)[C@@H]1c2ccccc2C[C@H]1NC(=O)c1cc2cc(Cl)sc2[nH]1 [Example 1, 2-Chloro-N-{(1R,2R)-1-[(methoxyacetyl)(methyl)amino]-2,3-dihydro-1H-inden-2-yl}-6H-thieno[2,3-b]pyrrole-5-carboxamide]
